{"source": "patent US8802597B2", "about": "“Herbicidal pyrimidines” (E I du Pont de Nemours and Company, priority 2003, dated 2014)", "format_in_all_cases": "in vivo", "key": {"[1]": {"system": "goosegrass (Eleusine indica)", "assay": "Test G pre/postemergence", "summary_of_the_method": "(§1)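 Seeds or nutlets were planted and treated preemergence with compound formulated in a non-phytotoxic solvent mixture containing surfactant; plants 2 to 18 cm tall (1- to 4-leaf stage) received postemergence sprays of the same formulation. After 12 to 21 days in a greenhouse, injury was rated visually against untreated controls on a 0–100 scale (100 = complete control).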"}, "[2]": {"system": "broadleaf signalgrass (Brachiaria platyphylla)", "assay": "Test G pre/postemergence", "summary_of_the_method": "as §1"}, "[3]": {"system": "large crabgrass (Digitaria sanguinalis)", "assay": "Test G pre/postemergence", "summary_of_the_method": "as §1"}, "[4]": {"system": "common ragweed (Ambrosia elatior)", "assay": "Test G pre/postemergence", "summary_of_the_method": "as §1"}, "[5]": {"system": "downy bromegrass (Bromus tectorum)", "assay": "Test G pre/postemergence", "summary_of_the_method": "as §1"}, "[6]": {"system": "tropical spiderwort (Commelina benghalensis)", "assay": "Test G pre/postemergence", "summary_of_the_method": "as §1"}, "[7]": {"system": "guineagrass (Panicum maximum)", "assay": "Test G pre/postemergence", "summary_of_the_method": "as §1"}, "[8]": {"system": "prickly sida (Sida spinosa)", "assay": "Test G pre/postemergence", "summary_of_the_method": "as §1"}, "[9]": {"system": "barnyardgrass (Echinochloa crus-galli)", "assay": "Test G pre/postemergence", "summary_of_the_method": "as §1"}, "[10]": {"system": "field bindweed (Convolvulus arvensis)", "assay": "Test G pre/postemergence", "summary_of_the_method": "as §1"}, "wild oat (Avena fatua)": {"system": "wild oat (Avena fatua)", "assay": "Test C postemergence", "summary_of_the_method": "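Rating scale 0–100: 0 means no effect, 100 complete control; taken visually 12 to 14 days post-treatment versus controls. Pre- and postemergence greenhouse applications, postemergence at 1- to 4-leaf stage, non-phytotoxic solvent with surfactant as carrier.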"}, "[11]": {"conditions": "Postemergence, 8 g ai/ha, scale 0 to 100"}, "[12]": {"conditions": "Postemergence, 16 g ai/ha, scale 0 to 100"}, "[13]": {"conditions": "Postemergence, 31 g ai/ha, scale 0 to 100"}, "[14]": {"conditions": "Postemergence, 62 g ai/ha, scale 0 to 100"}, "[15]": {"conditions": "Preemergence, 8 g ai/ha, scale 0-100"}, "[16]": {"conditions": "Preemergence, 16 g ai/ha, scale 0-100"}, "[17]": {"conditions": "Preemergence, 31 g ai/ha, scale 0-100"}, "[18]": {"conditions": "Preemergence, 62 g ai/ha, scale 0-100"}}, "data": [{"smiles": "CCOC(=O)c1nc(-c2ccc(Cl)cc2)nc(N)c1Cl", "note": "[Compound 64, ethyl 6-amino-5-chloro-2-(4-chlorophenyl)-4-pyrimidinecarboxylate]", "values": [{"measurement": "Plant response rating, Goosegrass", "setting": "[1]; [11]", "result": 0}, {"measurement": "Plant response rating, Goosegrass", "setting": "[1]; [12]", "result": 0}, {"measurement": "Plant response rating, Goosegrass", "setting": "[1]; [13]", "result": 0}, {"measurement": "Plant response rating, Goosegrass", "setting": "[1]; [14]", "result": 20}, {"measurement": "Plant response rating, Goosegrass", "setting": "[1]; [15]", "result": 0}, {"measurement": "Plant response rating, Goosegrass", "setting": "[1]; [16]", "result": 0}, {"measurement": "Plant response rating, Goosegrass", "setting": "[1]; [17]", "result": 0}, {"measurement": "Plant response rating, Goosegrass", "setting": "[1]; [18]", "result": 0}, {"measurement": "Plant response rating, Signalgrass", "setting": "[2]; [11]", "result": 0}, {"measurement": "Plant response rating, Signalgrass", "setting": "[2]; [12]", "result": 0}, {"measurement": "Plant response rating, Signalgrass", "setting": "[2]; [13]", "result": 0}, {"measurement": "Plant response rating, Signalgrass", "setting": "[2]; [14]", "result": 30}, {"measurement": "Plant response rating, Signalgrass", "setting": "[2]; [15]", "result": 0}, {"measurement": "Plant response rating, Signalgrass", "setting": "[2]; [16]", "result": 0}, {"measurement": "Plant response rating, Signalgrass", "setting": "[2]; [17]", "result": 0}, {"measurement": "Plant response rating, Signalgrass", "setting": "[2]; [18]", "result": 0}, {"measurement": "Plant response rating, Crabgrass, Large", "setting": "[3]; [11]", "result": 30}, {"measurement": "Plant response rating, Crabgrass, Large", "setting": "[3]; [12]", "result": 50}, {"measurement": "Plant response rating, Crabgrass, Large", "setting": "[3]; [13]", "result": 70}, {"measurement": "Plant response rating, Crabgrass, Large", "setting": "[3]; [14]", "result": 80}, {"measurement": "Plant response rating, Crabgrass, Large", "setting": "[3]; [15]", "result": 0}, {"measurement": "Plant response rating, Crabgrass, Large", "setting": "[3]; [16]", "result": 0}, {"measurement": "Plant response rating, Crabgrass, Large", "setting": "[3]; [17]", "result": 0}, {"measurement": "Plant response rating, Crabgrass, Large", "setting": "[3]; [18]", "result": 35}, {"measurement": "Plant response rating, Ragweed", "setting": "[4]; [11]", "result": 75}, {"measurement": "Plant response rating, Ragweed", "setting": "[4]; [12]", "result": 75}, {"measurement": "Plant response rating, Ragweed", "setting": "[4]; [13]", "result": 100}, {"measurement": "Plant response rating, Ragweed", "setting": "[4]; [14]", "result": 100}, {"measurement": "Plant response rating, Ragweed", "setting": "[4]; [15]", "result": 65}, {"measurement": "Plant response rating, Ragweed", "setting": "[4]; [16]", "result": 65}, {"measurement": "Plant response rating, Ragweed", "setting": "[4]; [17]", "result": 65}, {"measurement": "Plant response rating, Ragweed", "setting": "[4]; [18]", "result": 95}, {"measurement": "Plant response rating, Bromegrass, Downy", "setting": "[5]; [11]", "result": 0}, {"measurement": "Plant response rating, Bromegrass, Downy", "setting": "[5]; [12]", "result": 20}, {"measurement": "Plant response rating, Bromegrass, Downy", "setting": "[5]; [13]", "result": 40}, {"measurement": "Plant response rating, Bromegrass, Downy", "setting": "[5]; [14]", "result": 75}, {"measurement": "Plant response rating, Bromegrass, Downy", "setting": "[5]; [15]", "result": 0}, {"measurement": "Plant response rating, Bromegrass, Downy", "setting": "[5]; [16]", "result": 0}, {"measurement": "Plant response rating, Bromegrass, Downy", "setting": "[5]; [17]", "result": 0}, {"measurement": "Plant response rating, Bromegrass, Downy", "setting": "[5]; [18]", "result": 0}, {"measurement": "Plant response rating, Spiderwort", "setting": "[6]; [11]", "result": 65}, {"measurement": "Plant response rating, Spiderwort", "setting": "[6]; [12]", "result": 80}, {"measurement": "Plant response rating, Spiderwort", "setting": "[6]; [13]", "result": 80}, {"measurement": "Plant response rating, Spiderwort", "setting": "[6]; [14]", "result": 90}, {"measurement": "Plant response rating, Spiderwort", "setting": "[6]; [15]", "result": 0}, {"measurement": "Plant response rating, Spiderwort", "setting": "[6]; [16]", "result": 50}, {"measurement": "Plant response rating, Spiderwort", "setting": "[6]; [17]", "result": 75}, {"measurement": "Plant response rating, Spiderwort", "setting": "[6]; [18]", "result": 90}, {"measurement": "Plant response rating, Guineagrass", "setting": "[7]; [11]", "result": 0}, {"measurement": "Plant response rating, Guineagrass", "setting": "[7]; [12]", "result": 0}, {"measurement": "Plant response rating, Guineagrass", "setting": "[7]; [13]", "result": 0}, {"measurement": "Plant response rating, Guineagrass", "setting": "[7]; [14]", "result": 0}, {"measurement": "Plant response rating, Guineagrass", "setting": "[7]; [15]", "result": 0}, {"measurement": "Plant response rating, Guineagrass", "setting": "[7]; [16]", "result": 0}, {"measurement": "Plant response rating, Guineagrass", "setting": "[7]; [17]", "result": 0}, {"measurement": "Plant response rating, Guineagrass", "setting": "[7]; [18]", "result": 0}, {"measurement": "Plant response rating, Prickly Sida", "setting": "[8]; [11]", "result": 40}, {"measurement": "Plant response rating, Prickly Sida", "setting": "[8]; [12]", "result": 65}, {"measurement": "Plant response rating, Prickly Sida", "setting": "[8]; [13]", "result": 75}, {"measurement": "Plant response rating, Prickly Sida", "setting": "[8]; [14]", "result": 75}, {"measurement": "Plant response rating, Prickly Sida", "setting": "[8]; [15]", "result": 0}, {"measurement": "Plant response rating, Prickly Sida", "setting": "[8]; [16]", "result": 0}, {"measurement": "Plant response rating, Prickly Sida", "setting": "[8]; [17]", "result": 30}, {"measurement": "Plant response rating, Prickly Sida", "setting": "[8]; [18]", "result": 50}, {"measurement": "Plant response rating, Barnyardgrass", "setting": "[9]; [11]", "result": 0}, {"measurement": "Plant response rating, Barnyardgrass", "setting": "[9]; [12]", "result": 20}, {"measurement": "Plant response rating, Barnyardgrass", "setting": "[9]; [13]", "result": 20}, {"measurement": "Plant response rating, Barnyardgrass", "setting": "[9]; [14]", "result": 20}, {"measurement": "Plant response rating, Barnyardgrass", "setting": "[9]; [15]", "result": 0}, {"measurement": "Plant response rating, Barnyardgrass", "setting": "[9]; [16]", "result": 0}, {"measurement": "Plant response rating, Barnyardgrass", "setting": "[9]; [17]", "result": 0}, {"measurement": "Plant response rating, Barnyardgrass", "setting": "[9]; [18]", "result": 10}, {"measurement": "Plant response rating, Bindweed, Field", "setting": "[10]; [11]", "result": 60}, {"measurement": "Plant response rating, Bindweed, Field", "setting": "[10]; [12]", "result": 70}, {"measurement": "Plant response rating, Bindweed, Field", "setting": "[10]; [13]", "result": 80}, {"measurement": "Plant response rating, Bindweed, Field", "setting": "[10]; [14]", "result": 90}, {"measurement": "Plant response rating, Bindweed, Field", "setting": "[10]; [15]", "result": 0}, {"measurement": "Plant response rating, Bindweed, Field", "setting": "[10]; [16]", "result": 0}, {"measurement": "Plant response rating, Bindweed, Field", "setting": "[10]; [17]", "result": 0}, {"measurement": "Plant response rating, Bindweed, Field", "setting": "[10]; [18]", "result": 65}, {"measurement": "Plant response rating (scale of 0 to 100), Oat, Wild", "setting": "wild oat (Avena fatua); 31 g ai/ha", "result": 5}, {"measurement": "Plant response rating, Oat, Wild", "setting": "wild oat (Avena fatua); 250 g ai/ha, scale 0 to 100", "result": 10}, {"measurement": "pest or weed control at 62 g/ha", "setting": "wild oat (Avena fatua); Avena fatua, post-emergence, 62 g ai/ha, scale 0 to 100 (0 no effect, 100 complete control), read-out: Oat, Wild plant response rating", "result": 5, "unit": "%"}, {"measurement": "pest or weed control at 125 g/ha", "setting": "wild oat (Avena fatua); Avena fatua, post-emergence, 125 g ai/ha, scale 0 to 100 (0 no effect, 100 complete control), read-out: Oat, Wild plant response rating", "result": 10, "unit": "%"}]}]}
